Key:
[1] = tested on: HPA; test: HPA levels in LPS-stimulated RAW264.7 macrophages (immunofluorescence, western blotting); format: cell-based, mouse; conditions: CV122 50 µM 3 h, then LPS 5 µg mL−1 1 h
Protocol: (§1) Lungs were harvested from LPS‐induced and CLP‐induced sepsis model mice, and frozen sections were prepared. HUVECs and RAW264.7 macrophages were incubated with CV122 for 3 h, and TNF‐α (20 ng mL^−1) and LPS (5 µg mL^−1) were used to stimulate cells for 1 h. Lung tissue, HUVECs, and RAW264.7 macrophages were fixed with 4% paraformaldehyde for 10 min before permeabilization with 0.5% Triton X‐100 for 10 min. The membrane was sealed with 4% skimmed milk powder and incubated at room temperature for 50 min. Primary antibodies were rabbit anti‐heparanase polyclonal antibodies overnight at 4 °C. The diluent of the secondary antibody FITC‐WGA‐lectin was kept at room temperature and protected from light for 1 h. Nuclei were stained with DAPI. After 120 s, images were acquired with a confocal microscope (LSM 800, Zeiss, Germany).
CV122 (50 µM) was incubated with HUVECs and RAW264.7 cells for 3 h, and LPS (5 µg mL^−1) and TNF‐α (20 ng mL^−1) were incubated for 1 h. Total protein was extracted with RIPA tissue/cell lysate solution. Lung tissues were collected and homogenized in cold RIPA buffer to obtain proteins. The BCA method was used to quantify protein. After full denaturing, proteins were separated by 10% SDS‐PAGE and transferred to PVDF membrane. […] Blots were developed with a chemiluminescent HRP substrate, and the protein bands were detected with a chemiluminescence imager (MiniChemi610).

[2] = tested on: HPA; test: HPA expression in tissues of LPS-induced septic mice (IHC, immunofluorescence, immunoblotting); format: in vivo, mouse; conditions: 24 h after LPS injection
Protocol: as §1
The lung, kidney, and liver tissues of mice were fixed in paraformaldehyde. Sections underwent endogenous peroxidase quenching and antigen retrieval followed by incubation with primary antibodies or isotype‐matched controls. […]
CV122 (50 µM) was incubated with HUVECs and RAW264.7 cells for 3 h, and LPS (5 µg mL^−1) and TNF‐α (20 ng mL^−1) were incubated for 1 h. […] The BCA method was used to quantify protein. […] Blots were developed with a chemiluminescent HRP substrate, and the protein bands were detected with a chemiluminescence imager (MiniChemi610).

[3] = tested on: LPS-induced septic mice; test: LPS-induced sepsis mouse model, survival; format: in vivo; conditions: LPS group 0%
Protocol: For LPS‐induced sepsis model experiments, 25 male C57BL/6J mice, 6–8 weeks old, weighing 20–25 g, were randomly divided into five groups (n = 5 in each group), and survival was examined. The abdominal cavity was injected with 40 mg kg^−1 LPS to induce sepsis. 30 min later, mice in group 1 were injected subcutaneously with 0.9% NaCl, mice in groups 2–4 were injected subcutaneously with CV122 (20 mg kg^−1), CV122 (30 mg kg^−1), and CV122 (40 mg kg^−1), respectively, and mice in group 5 were injected subcutaneously with Suramin (40 mg kg^−1). The status of the mice was observed and recorded every day.

## COC1OC(COS(=O)(=O)O)C(OC2OC(C(=O)O)C(OC3OC(COS(=O)(=O)O)C(OC4OC(C(=O)O)C(OC5OC(COS(=O)(=O)O)C(O)C(O)C5NS(=O)(=O)O)C(OS(=O)(=O)O)C4O)C(OS(=O)(=O)O)C3NS(=O)(=O)O)C(O)C2OS(=O)(=O)O)C(O)C1NS(=O)(=O)O (stereo not shown) [CV122]
[1]
  HPA levels in macrophages: significantly inhibited HPA levels following LPS stimulation of macrophages
[2]
  HPA overexpression in the lungs: significantly reduced the HPA overexpression
[3]; 20 mg kg−1 s.c. 30 min after LPS 40 mg kg−1 i.p.
  survival rate: 60%
[3]; 40 mg kg−1 s.c. 30 min after LPS 40 mg kg−1 i.p., 80 h or longer observation
  survival rate: 100%

From paper PMC11304236, “A Novel Drug Candidate for Sepsis Targeting Heparanase by Inhibiting Cytokine Storm” (Advanced Science, 2024)
